Values quoted from earlier work in patent publication US20210137911A1, “NOVEL CHRONOTHERAPY BASED ON CIRCADIAN RHYTHMS” (THE TRUSTEES OF THE UNIVERSITY OF PENNSYLVANIA, priority 2014, published 2021).
Like-named read-outs stand apart in the source and are kept apart here.

Conditions: cited from earlier work; for half-life: see Table 1
[1] = half-life of top selling therapeutic compounds (Table 1)
[2] = half-life of therapeutic compound as listed in Table 1

Molecule | ½ Life (in vivo) [h] | ½ Life [1] [h] | further results
CCC1=C(C)c2cc3[n-]c(cc4[n-]c(cc5nc(cc1n2)C(C)=C5CC)c(C)c4CCC(=O)O)c(CCC(=O)O)c3C.[Cl-].[Cl-].[Sn+4] [Stannsoporfin] | 3.8 | – | –
CC(=O)[C@H]1CC[C@H]2[C@@H]3C=CC4=CC(=O)CC[C@@]4(C)[C@@H]3CC[C@]12C [Dydrogesterone] | – | 5 | –
O=C(O)C1N=C(c2ccccc2)c2cc(Cl)ccc2NC1=O (stereo not drawn) [Clorazepate] | – | 2 | –
C#CCN(C)[C@H](C)Cc1ccccc1 [Selegiline] | 1.2 | – | –
CCC[C@H](N[C@@H](C)C(=O)N1[C@H](C(=O)O)C[C@@H]2CCCC[C@@H]21)C(=O)OCC [Perindopril] | – | – | ½ Life [2]: 1.2 h
CC(=O)Oc1ccccc1C(=O)Nc1ncc([N+](=O)[O-])s1 [Nitazoxanide] | – | – | ½ Life [2]: 3.5 h
CC(C)[N+]1(C)[C@@H]2CC[C@H]1CC(OC(=O)C(CO)c1ccccc1)C2.[Br-] (stereo partly drawn) [Ipratropium bromide] | – | – | ½ Life [2]: 2 h
C=CCN1CC[C@]23c4c5ccc(O)c4O[C@H]2C(=O)CC[C@@]3(O)[C@H]1C5 [Naloxone] | – | – | ½ Life [2]: 0.5 h
O=[N+]([O-])O[C@H]1CO[C@H]2[C@@H]1OC[C@H]2O[N+](=O)[O-] [Isosorbide Dinitrate] | – | – | ½ Life [2]: 1 h
c1ccc([C@H]2CN3CCSC3=N2)cc1 [Levamisole] | – | – | ½ Life [2]: 4.4 h
Cc1cc(C2CCCCC2)n(O)c(=O)c1 [Ciclopirox] | – | 1.7 | –
C[C@@H]1CC(=O)NN=C1c1ccc(NN=C(C#N)C#N)cc1 [Levosimendan] | – | – | ½ Life [2]: 1 h
CCOC(=O)c1ncn2c1CN(C)C(=O)c1cc(F)ccc1-2 [Flumazenil] | – | 4 | –
CCN(CC)CCN1C(=O)CN=C(c2ccccc2F)c2cc(Cl)ccc21 [Flurazepam] | – | 2.3 | –
C#CCN[C@@H]1CCc2ccccc21 [Rasagiline] | 3 | – | –
Cc1cn([C@H]2C[C@H](N=[N+]=[N-])[C@@H](CO)O2)c(=O)[nH]c1=O [Zidovudine] | 1.1 | – | –
CC[C@@]1(O)C(=O)OCc2c1cc1n(c2=O)Cc2cc3c(CN(C)C)c(O)ccc3nc2-1 [Topotecan] | 2 | – | –
O=C(O)c1cccnc1 [niacin, reference compound] | – | – | ½ Life [2]: 0.33 h; half-life: 19.8 min
CCn1cc(C(=O)O)c(=O)c2cc(F)c(N3CCNCC3)nc21 [Enoxacin] | – | 3 | –
CCCCC(C)(O)C/C=C/[C@H]1[C@H](O)CC(=O)[C@@H]1CCCCCCC(=O)OC (mixture of isomers) [Misoprostol] | – | – | ½ Life [2]: 0.33 h
Drotrecogin alfa | 5.5 | – | –
COc1ccc(C(=O)Nc2ccccc2CCC2CCCCN2C)cc1 (stereo not drawn) [Encainide] | – | 1 | –
CC[C@H](C)[C@@H]1NC(=O)[C@H](Cc2ccc(O)cc2)NC(=O)[C@@H](N)CSSC[C@@H](C(=O)N2CCC[C@H]2C(=O)N[C@@H](CC(C)C)C(=O)NCC(N)=O)NC(=O)[C@H](CC(N)=O)NC(=O)[C@H](CCC(N)=O)NC1=O [Oxytocin] | 0.0166 | – | –
CCC(=O)NCC[C@@H]1CCc2ccc3c(c21)CCO3 [Ramelteon] | 1 | – | –
CCN(C)C(=O)Oc1cccc([C@H](C)N(C)C)c1 [Rivastigmine] | 1.5 | – | –
O=P(O)(O)C(O)(Cc1cccnc1)P(=O)(O)O [Risedronate] | 1.5 | – | –
CC(O)(P(=O)(O)O)P(=O)(O)O [Etidronic acid] | – | 1 | –

Molecule | ½ Life (in vivo) [h] | ½ Life [1] [h] | further results
Nc1ccncc1 [Dalfampridine] | 3.5 | – | –
COC(=O)[C@@H]1CC2=CC(=O)CC[C@]2(C)[C@@]23O[C@@H]2C[C@@]2(C)[C@@H](CC[C@@]24CCC(=O)O4)[C@H]13 [Eplerenone] | – | 4 | –
Nc1nc(N)c2nc(-c3ccccc3)c(N)nc2n1 [Triamterene] | 4.25 | – | –
Clc1ccc2nsnc2c1NC1=NCCN1 [Tizanidine] | 2.5 | – | –
Insulin Detemir | 5 | – | –
COc1ccc(CN=c2[nH]c(N3CCC[C@H]3CO)ncc2C(=O)NCc2ncccn2)cc1Cl [Avanafil] | – | 5.36 | –
C#CC1(OC(N)=O)CCCCC1 [Ethinamate] | 2.5 | – | –
CCC(C)(C)C(=O)O[C@H]1C[C@@H](C)C=C2C=C[C@H](C)[C@H](CC[C@@H]3C[C@@H](O)CC(=O)O3)[C@H]21 [Simvastatin, reference compound] | – | – | half-life: less than three
CN(C)[C@@H](CCOc1cccc2ccccc12)c1ccccc1 [Dapoxetine] | – | 1 | –
CC(C)OC(=O)CCC/C=C\C[C@@H]1[C@@H](/C=C/[C@@H](O)COc2cccc(C(F)(F)F)c2)[C@H](O)C[C@@H]1O [Travoprost] | 0.75 | – | –
C=CCc1ccccc1OCC(O)CNC(C)C (stereo not drawn) [Alprenolol] | – | 2 | –
CCN(CC)C(=O)C1CN2CCc3cc(OC)c(OC)cc3C2CC1OC(C)=O (stereo not drawn) [Benzquinamide] | – | 1 | –
CCCCN1CCCCC1C(=O)Nc1c(C)cccc1C (stereo not drawn) [Bupivacaine] | – | 2.7 | –
CCC(=O)C1(c2cccc(O)c2)CCN(C)CC1 [Ketobemidone] | 2.42 | – | –
O=C1CN2Cc3c(ccc(Cl)c3Cl)N=C2N1 [Anagrelide] | – | 0.5 | –
CCNC(=O)CCC/C=C\C[C@@H]1[C@@H](/C=C/[C@@H](O)CCc2ccccc2)[C@H](O)C[C@@H]1O [Bimatoprost] | – | 0.75 | –
CC(=O)Nc1ccc(O)cc1 [Acetaminophen] | – | 1 | –
NCCCNCCSP(=O)(O)O [Amifostine] | – | 0.133 | –
CN(N=O)C(=O)N[C@@H](C=O)[C@@H](O)[C@H](O)[C@H](O)CO [Streptozocin] | 0.0833 | – | –
CC(C)c1ccc2oc3nc(N)c(C(=O)O)cc3c(=O)c2c1 [Amlexanox] | – | 3.5 | –
COC(=O)[C@H](c1ccccc1)[C@H]1CCCCN1 [Dexmethylphenidate] | 2 | – | –
CC(=O)[C@H]1CC[C@H]2[C@@H]3CC[C@H]4C[C@](C)(O)CC[C@]4(C)[C@H]3CC[C@]12C [Ganaxolone] | – | – | ½ Life [2]: 1.3 h
CC(=O)N[C@@H](CS)C(=O)O [Acetylcysteine] | – | 5.6 | –
CN1CC[C@]23c4c5ccc(O)c4O[C@H]2C(=O)CC[C@@]3(O)[C@H]1C5 [Oxymorphone] | – | – | ½ Life [2]: 1.3 h
CCOc1cc(N)c([N+](=O)[O-])cc1C(=O)NC1CCN(CC2CC=CCC2)CC1 (stereo not drawn) [Cinitapride] | – | 3 | –
C[C@H](/C=C/[C@H](C)C(C)(C)O)[C@H]1CC[C@H]2/C(=C/C=C3C[C@@H](O)C[C@H](O)C3)CCC[C@]12C [Paricalcitol] | – | – | ½ Life [2]: 4 h
